Activity calls are given as the source filed them. The rule behind the calls is not given here. Where a SMILES comes first, the peptide text is derived from it. Bridges are numbered along the chain shown (N, C = ends). [ ]: non-standard residue; d: D form. His(π-(CH2)8Ph) = N[C@@H](Cc1cncn1CCCCCCCCc1ccccc1)C(=O)O; pT = C[C@@H](OP(=O)(O)O)[C@H](N)C(=O)O; Ahx = NCCCCCC(=O)O
Assays:
[1] = test system: HeLa; experiment: Cytotoxicity against human HeLa cells incubated for 24 hrs by MTT assay; type: functional, cell-based
[2] = molecular target: Serine/threonine-protein kinase PLK1 (Homo sapiens, UniProt P53350); experiment: Binding affinity to PLK1 PBD (unknown origin) by ITC method
Serine/threonine-protein kinase PLK1, sequence (P53350 whole entry): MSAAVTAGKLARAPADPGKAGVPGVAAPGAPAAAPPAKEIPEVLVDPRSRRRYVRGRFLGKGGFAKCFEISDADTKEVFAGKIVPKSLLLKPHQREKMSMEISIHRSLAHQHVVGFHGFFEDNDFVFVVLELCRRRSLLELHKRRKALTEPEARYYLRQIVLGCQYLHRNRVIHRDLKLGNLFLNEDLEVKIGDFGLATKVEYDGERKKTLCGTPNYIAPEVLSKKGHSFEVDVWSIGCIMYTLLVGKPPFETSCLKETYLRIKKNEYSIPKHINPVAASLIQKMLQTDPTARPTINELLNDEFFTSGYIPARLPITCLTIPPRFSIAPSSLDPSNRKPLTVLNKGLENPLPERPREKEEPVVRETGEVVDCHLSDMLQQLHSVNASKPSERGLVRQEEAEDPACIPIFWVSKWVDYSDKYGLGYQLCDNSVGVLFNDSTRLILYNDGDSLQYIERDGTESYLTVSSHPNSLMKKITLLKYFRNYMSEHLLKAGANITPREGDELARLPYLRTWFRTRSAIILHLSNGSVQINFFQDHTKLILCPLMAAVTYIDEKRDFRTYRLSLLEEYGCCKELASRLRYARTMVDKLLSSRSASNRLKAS

[3] = test system: PC-9; experiment: Cytotoxicity against human PC-9 cells assessed as change in morphology at 25 uM incubated for 24 hrs by phase contrast microscopic assay; type: functional, cell-based
[4] = test system: NCI-H1975; experiment: Cytotoxicity against human NCI-H1975 cells assessed as change in morphology at 25 uM incubated for 24 hrs by phase contrast microscopic assay; type: functional, cell-based
[5] = test system: PC-9; experiment: Induction of cell cycle arrest in human PC-9 cells assessed as G2/M phase arrest at 10 uM incubated for 24 hrs by PI staining based flow cytometry analysis; type: functional
[6] = test system: A549; experiment: Induction of cell cycle arrest in human A549 cells assessed as delay in S phase progression at 10 uM incubated for 24 hrs by PI staining based flow cytometry analysis; type: functional
[7] = test system: NCI-H1975; experiment: Induction of cell cycle arrest in human NCI-H1975 cells assessed as delay in S phase progression at 10 uM incubated for 24 hrs by PI staining based flow cytometry analysis; type: functional
[8] = test system: NCI-H1975; experiment: Induction of cell cycle arrest in human NCI-H1975 cells assessed as fold increase in S phase population at 10 uM incubated for 24 hrs by PI staining based flow cytometry analysis; type: functional
[9] = test system: PC-9; experiment: Induction of cell cycle arrest in human PC-9 cells assessed as fold increase in S phase population at 10 uM incubated for 24 hrs by PI staining based flow cytometry analysis; type: functional
[10] = test system: HeLa; experiment: Induction of apoptosis in human HeLa cells at 18 uM incubated for 24 hrs by fluorescence microscopic analysis; type: functional, cell-based
[11] = test system: PC-9; experiment: Induction of apoptosis in human PC-9 cells at 25 uM incubated for 24 hrs by fluorescence microscopic analysis; type: functional, cell-based
[12] = test system: NCI-H1975; experiment: Induction of apoptosis in human NCI-H1975 cells at 25 uM incubated for 24 hrs by fluorescence microscopic analysis; type: functional, cell-based
[13] = Drug uptake in human HeLa cells nucleus at 10 uM incubated for 24 hrs by PI staining based inverted confocal laser scanning fluorescence microscopic anlaysis; type: ADME, subcellular
[14] = Drug uptake in human HeLa cells cell membrane at 10 uM incubated for 24 hrs by PI staining based inverted confocal laser scanning fluorescence microscopic analysis; type: ADME
[15] = test system: HeLa; experiment: Antitumor activity against human HeLa cells xenografted in iv dosed nude mouse assessed as reduction in tumor size; type: functional, organism-based; conditions: dose 10.0 mg/kg
[16] = test system: PC-9; experiment: Antitumor activity against human PC-9 cells xenografted in nude mouse assessed as fold reduction in tumor size at 10 mg/kg, iv; type: functional
[17] = test system: HeLa; experiment: Antitumor activity against human HeLa cells xenografted in nude mouse assessed as fold reduction in tumor size at 10 mg/kg, iv; type: functional
[18] = test system: NCI-H1975; experiment: Antitumor activity against human NCI-H1975 cells harboring L858R/T790M double mutant xenografted in iv dosed nude mouse assessed as tumor growth inhibition administered for every 3 days in presence of 5 mg/kg osimertinib; type: functional, organism-based
[19] = test system: NCI-H1975; experiment: Antitumor activity against human NCI-H1975 cells harboring L858R/T790M double mutant xenografted in nude mouse assessed as fold reduction in tumor size at 10 mg/kg, iv administered for every 3 days in presence of 5 mg/kg osimertinib; type: functional
[20] = Toxicity in nude mouse xenografted with human NCI-H1975 cells assessed as change in body weight at 10 mg/kg, iv administered for every 3 days; type: organism-based; conditions: in vivo, 72 h
[21] = In vivo induction of PLK1 degradation in nude mouse xenografted with human NCI-H1975 cells assessed as reduction in PLK1 protein expression at 10 mg/kg, iv administered for every 3 days by Western blotting analysis; type: functional; parameters: scale not given: the % may be the effect or the level left
[22] = Protac activity at UBR/PLK1 in human A549 cells assessed as PLK1 degradation incubated for 24 hrs by immunoblotting analysis
[23] = test system: UBR/PLK1 (Homo sapiens); experiment: as above; conditions: dose 5-25 µM
[24] = Protac activity at UBR/PLK1 in human NCI-H1975 cells assessed as PLK1 degradation incubated for 24 hrs by immunoblotting analysis
[25] = test system: UBR/PLK1 (Homo sapiens); experiment: as above; conditions: dose 5-25 µM
[26] = test system: UBR/PLK1 (Homo sapiens); experiment: Protac activity at UBR/PLK1 in human HeLa cells assessed as PLK1 degradation at 5 uM incubated for 24 hrs by immunoblotting analysis
[27] = test system: UBR/PLK1 (Homo sapiens); experiment: Protac activity at UBR/PLK1 in human PC-9 cells assessed as PLK1 degradation at 25 uM incubated for 24 hrs by immunoblotting analysis
[28] = test system: UBR/PLK1 (Homo sapiens); experiment: Protac activity at UBR/PLK1 in human A549 cells assessed as PLK1 degradation at 30 uM incubated for 24 hrs by immunoblotting analysis
[29] = test system: UBR/PLK1 (Homo sapiens); experiment: Protac activity at UBR/PLK1 in human NCI-H1975 cells assessed as PLK1 degradation at 30 uM incubated for 24 hrs by immunoblotting analysis
[30] = test system: UBR/PLK1 (Homo sapiens); experiment: Protac activity at UBR/PLK1 in human PC-9 cells assessed as PLK1 degradation at 10 uM incubated for 2 to 24 hrs by immunoblotting analysis; conditions: time 2-24 hrs
[31] = test system: UBR/PLK1 (Homo sapiens); experiment: Protac activity at UBR/PLK1 in human A549 cells assessed as PLK1 degradation at 25 uM incubated for 2 to 24 hrs by immunoblotting analysis; conditions: time 2-24 hrs
[32] = test system: UBR/PLK1 (Homo sapiens); experiment: Protac activity at UBR/PLK1 in human A549 cells assessed as PLK1 degradation at 5 to 30 uM preincubated for 24 hrs followed by MG132 addition for 8 hrs by immunoblotting analysis; conditions: dose 5-30 µM, time 32.0 hrs
[33] = test system: UBR/PLK1 (Homo sapiens); experiment: Protac activity at UBR/PLK1 in human PC-9 cells assessed as PLK1 degradation at 5 to 30 uM preincubated for 24 hrs followed by MG132 addition for 8 hrs by immunoblotting analysis; conditions: dose 5-30 µM, time 32.0 hrs
[34] = test system: UBR/PLK1 (Homo sapiens); experiment: Protac activity at UBR/PLK1 in human HeLa cells assessed as PLK1 degradation at 4 uM preincubated for 24 hrs followed by compound washout and measured after 24 to 48 hrs by immunoblotting analysis

C[C@@H](OP(=O)(O)O)[C@@H]1NC(=O)[C@H](Cc2cncn2CCCCCCCCc2ccccc2)NC(=O)[C@@H](NC(=O)CCCCCNC(=O)[C@H](CCCNC(=N)N)NC(=O)[C@H](CCCNC(=N)N)NC(=O)[C@H](CCCNC(=N)N)NC(=O)[C@H](CCCNC(=N)N)NC(=O)[C@H](CCCNC(=N)N)NC(=O)[C@H](CCCNC(=N)N)NC(=O)[C@H](CCCNC(=N)N)NC(=O)[C@H](CCCNC(=N)N)NC(=O)[C@H](CCCNC(=N)N)NC(=O)[C@H](CCCNC(=N)N)NC(=O)[C@H](CCCNC(=N)N)NC(=O)[C@@H](N)CCCNC(=N)N)CCC(=O)NCCCC[C@@H](C(N)=O)NC1=O (H-RRRRRRRRRRRR[Ahx]E[His(π-(CH2)8Ph)][pT]K-NH2; lactam 14-17)
IC50 [1]: 18 µM | Kd [2]: 3.48 µM | Activity [3]: Active | Activity [4]: Active | Activity [5]: 9% | Activity [6]: Active | Activity [7]: Active | Activity [8]: Active | Activity [9]: Active | Activity [10]: Active | Activity [11]: Active | Activity [12]: Active | Drug uptake [13]: Active | Drug uptake [14]: Active | Activity [15]: Dose-Dependent Effect | fold change (FC) [16]: 5.2 | fold change (FC) [17]: 3.4 | Activity [18]: Dose-Dependent Effect | fold change (FC) [19]: 3.5 | Activity [20]: Non-Toxic | Activity [21]: >60% | DC50 [22]: 27 µM | Activity [23]: Dose-Dependent Effect | DC50 [24]: 12 µM | Activity [25]: Dose-Dependent Effect | Emax [26]: 80% | Activity [27]: > 90% | Emax [28]: > 60% | Emax [29]: 95% | Activity [30]: Active | Activity [31]: Active | Activity [32]: inactive | Activity [33]: inactive | Activity [34]: Active

Reference: ChEMBL document CHEMBL5518167, “Degradation of Polo-like Kinase 1 by the Novel Poly-Arginine N-Degron Pathway PROTAC Regulates Tumor Growth in Nonsmall Cell Lung Cancer” (J Med Chem, 2024)
